Experimental findings from EPA's ToxValDB 9.5 (doi:10.2903/j.efsa.2009.269r) are described below.

For one data set, the system named is Anas platyrhynchos. The settings on record: acute; oral; unspecified; mortality.
Another data set has as its system Apis mellifera. The settings on record: acute; duration: 48 hours; dermal; mortality.
The test system of another data set is Bibionidae. The following applies: chronic/long-term; duration: 28 days.
The test system of the next data set is Canidae. The following applies: chronic; duration: 1 years; oral; Dog Other; organ weight.
The subject of a further data set is Daphnia magna. The following applies: chronic/long-term; duration: 21 days; reproduction.
The next data set concerns Folsomia candida. The settings on record: chronic/long-term; reproduction.
For the next data set, the system named is Rattus norvegicus. The following applies: for NOAEL: histopathology: nonneoplastic.
The next data set deals with Tagia sp. The settings on record: mortality.
In another data set the test system is Aphidius rhopalosiphi. In words: LR50; higher = less toxic. The following applies: not reported; mortality.

With `Clc1ccccc1-c1nnc(-c2ccccc2Cl)nn1` [Clofentezine], the LD50 was more than 3000 mg/kg-day with Anas platyrhynchos; more than 84.5 µg/piece in the data set with Apis mellifera; more than 5200 mg/kg-day in the data set on Rattus norvegicus (acute, oral, mortality). Further, the NOEC with Bibionidae stood at 0.5 mg/L; with Colinus virginianus (reproduction developmental), 7.62 mg/kg-day; in the data set with Daphnia magna, 0.025 mg/L; in the data set with Folsomia candida it was 160 mg/kg; in the data set on Oncorhynchus mykiss (chronic/long-term, duration: 97 days), 0.007 mg/L; in the data set on Rattus norvegicus (chronic), 40 mg/kg-day. In the data set on Tagia sp. (chronic/long-term), the NOEC amounted to 5310 mg/kg. The NOAEL in the data set with Canidae came out at 1.7 mg/kg-day; in the data set on Rattus norvegicus (chronic, duration: 2 years) it was 2 mg/kg-day; in the data set with Rattus norvegicus (subchronic, duration: 90 days, oral), 2.65 mg/kg-day. For the same compound, the LC50 was more than 4000 mg/kg-day in the data set on Colinus virginianus (acute, oral, diet, mortality); more than 0.0146 µg/mL in the data set on Oncorhynchus mykiss (acute, duration: 96 hours, mortality); 430 mg/kg with Tagia sp. (acute). The same compound yielded an LR50 with Aphidius rhopalosiphi of 36.2 g/ha.
